Read-outs that look alike come from different tables or passages of the source.

In the test the test system is HIV-1 (NL4-3 strain). As to the kind of experiment: Assay for Inhibition of HIV Replication (VIKING, MT4-gag-GFP reporter cells). Format: cell-based. The conditions noted are these: MT4-GFP cells infected with HIV-1 NL4-3, infected cells at 48 h / 24 h, read-out: VIKING IP50 (nM) with 0% NHS. How it is done:
This assay may be useful for assessing the ability of a compound of the present invention to inhibit HIV replication. The assay is a kinetic assay that employs a reporter cell line (MT4-gag-GFP) to quantify the number of new cells infected in each round of replication.
MT4-GFP cells (250,000 cells/ml) are bulk-infected with HIV-1 (NL4-3 strain) at low multiplicity of infection (MOI) in RPMI+10% FBS for 24 hours. Cells are then washed once in RPMI+10% FBS and resuspended in RPMI+0% normal human serum (NHS). Test compounds are serial-diluted in DMSO on ECHO. The infected MT4-GFP cells are added to a 384-well poly-D-lysine coated black plate with clear bottom in which the diluted test compounds are placed. The cells are seeded at 8,000 cells per well and the final DMSO concentration is adjusted to 0.4%. The infected cells (Green GFP cells) are then quantified at both 24 and 48 hours post incubation using Acumen eX3. Viral reproductive ratio (R0) is determined using the number of infected cells at 48 hours divided by the number of infected cells at 24 hours. Percent viral growth inhibition is calculated by [1-(R—Rtripledrug)/(RDMSO—Rtripledrug)]*100. Compound potency IP or IC50 may be determined using a 4-parameter dose response curve analysis.

The mark [1] stands for this setting: Human immunodeficiency virus 1, NL43, 0% normal human serum.

`COCCN1CN2CC(OC)c3c(C(=O)NCc4ccc(F)cc4F)c(=O)c(O)c(n32)C1=O` (single isomer, unassigned) [Compound 9]: the IC50 under setting [1] was determined as 1.4 nM.
On to `CCN1CN2CC(OC)c3c(C(=O)NCc4ccc(F)cc4F)c(=O)c(O)c(n32)C1=O` (single isomer, unassigned) [Compound 23], for which the IC50 under setting [1] came out at 4.1 nM.
On the same count and under the same terms, under `CCN1CN2CCCc3c(C(=O)NCc4ccc(F)cc4F)c(=O)c(O)c(n32)C1=O` [Compound 36] stands 11.4 nM.
For `COCCN1CN2CC(OC)c3c(C(=O)NCc4ccc(F)c(Cl)c4F)c(=O)c(O)c(n32)C1=O` (single isomer, unassigned) [Compound 11], the IC50 (0% normal human serum) came out at 1.1 nM.
As to `CCN1Cn2ccc3c(C(=O)NCc4ccc(F)cc4F)c(=O)c(O)c(n32)C1=O` [Compound 34], the IC50 under setting [1] is 11.5 nM.
In the case of `CN1CN2CCc3c(C(=O)NCc4c(F)cc(F)cc4F)c(=O)c(O)c(n32)C1=O` [Compound 41], the IC50 under setting [1] was determined as 2.9 nM.
Turning to `COC1CN2CN(C)C(=O)c3c(O)c(=O)c(C(=O)NCc4cccc(Cl)c4F)c1n32` (single isomer, unassigned) [Compound 30], the IC50 (0% normal human serum) was found to be 1.5 nM.
Still for that read-out and setting: under `COC1CN2CN(C)C(=O)c3c(O)c(=O)c(C(=O)NCc4ccc(F)c(Cl)c4)c1n32` (single isomer, unassigned) [Compound 33] stands 0.8 nM; under `COCCN1CN2CC(OC)c3c(C(=O)NCc4cccc(Cl)c4F)c(=O)c(O)c(n32)C1=O` (single isomer, unassigned) [Compound 13], 1 nM; under `COCCN1CN2CC(OC)c3c(C(=O)NCc4cccc(Cl)c4F)c(=O)c(O)c(n32)C1=O` (single isomer, unassigned) [Compound 12], 2.3 nM.
As for `COC1CN2CN(CC3CC3)C(=O)c3c(O)c(=O)c(C(=O)NCc4cccc(Cl)c4F)c1n32` (single isomer, unassigned) [Compound 20], the IC50 (0% normal human serum) amounted to 1.2 nM.
Consider `COC1CN2CN(C(C)C)C(=O)c3c(O)c(=O)c(C(=O)NCc4ccc(F)cc4F)c1n32` (stereo not drawn) [Compound 7], for which the IC50 under setting [1] worked out at 13.3 nM.
For `COC1CN2n3c(c(O)c(=O)c(C(=O)NCc4ccc(F)cc4F)c31)C(=O)N(C)C21CCOC1` (stereo not drawn) [Compound 37], the IC50 (0% normal human serum) turned out to be 8.5 nM.
`CCN1CN2CC(OC)c3c(C(=O)NCc4cccc(Cl)c4F)c(=O)c(O)c(n32)C1=O` (single isomer, unassigned) [Compound 26]: the IC50 under setting [1] was determined as 1.5 nM.
On to `CCN1CN2CC(OC)c3c(C(=O)NCc4ccc(F)cc4F)c(=O)c(O)c(n32)C1=O` (stereo not drawn) [Compound 22], for which, under setting [1], the IC50 amounted to 2.1 nM.
As to `COC1CN2n3c(c(O)c(=O)c(C(=O)NCc4ccc(F)cc4F)c31)C(=O)N(C)C21CCOC1` (stereo not drawn) [Compound 40], for the setting “0% normal human serum”, the IC50 came to 3.8 nM.
Regarding `CN1CN2CCc3c(C(=O)NCc4c(F)ccc(Cl)c4F)c(=O)c(O)c(n32)C1=O` [Compound 43], under setting [1], the IC50 is 1.8 nM.
In the case of `COC1CN2CN(C)C(=O)c3c(O)c(=O)c(C(=O)NCc4cccc(Cl)c4F)c1n32` (single isomer, unassigned) [Compound 31], for the setting “0% normal human serum”, the IC50 worked out at 0.5 nM.
The same measure, in the same setting: under `CCN1CN2CC(OC)c3c(C(=O)NCc4ccc(F)c(Cl)c4F)c(=O)c(O)c(n32)C1=O` (single isomer, unassigned) [Compound 25] stands 0.9 nM.
Turning to `CN1CN2CCc3c(C(=O)NCc4ccc(F)cc4F)c(=O)c(O)c(n32)C1=O` [Compound 42], under setting [1], the IC50 turned out to be 1.6 nM.
On the same count and under the same terms, the value for `COCCN1CN2CC(OC)c3c(C(=O)NCc4ccccc4F)c(=O)c(O)c(n32)C1=O` (single isomer, unassigned) [Compound 16] was 1.5 nM.
With `CCN1CN2CCc3c(C(=O)NCc4ccc(F)cc4F)c(=O)c(O)c(n32)C1=O` [Compound 35], the IC50 under setting [1] was 2.2 nM.
Turning to `COCCN1CN2CC(OC)c3c(C(=O)NCc4ccc(F)c(Cl)c4F)c(=O)c(O)c(n32)C1=O` (single isomer, unassigned) [Compound 10], the IC50 under setting [1] is 1.4 nM.
With `COCCN1CN2C(=O)N(C)Cc3c(C(=O)NCc4ccc(F)cc4F)c(=O)c(O)c(n32)C1=O` [Compound 5], the IC50 under setting [1] stood at 1.7 nM.
As for `COCCN1CN2CC(OC)c3c(C(=O)NCc4ccc(F)cc4)c(=O)c(O)c(n32)C1=O` (single isomer, unassigned) [Compound 14], where the note is “0% normal human serum”, the IC50 is 4.6 nM.
`COC1CN2CN(C)C(=O)c3c(O)c(=O)c(C(=O)NCc4ccc(F)c(Cl)c4)c1n32` (single isomer, unassigned) [Compound 32]: the IC50 under setting [1] amounted to 1.2 nM.
On the same count and under the same terms, under `COC1CN2CN(CC3CC3)C(=O)c3c(O)c(=O)c(C(=O)NCc4ccc(F)cc4F)c1n32` (single isomer, unassigned) [Compound 18] stands 0.4 nM; under `CC(C)N1CN2C(=O)N(C)Cc3c(C(=O)NCc4ccc(F)cc4F)c(=O)c(O)c(n32)C1=O` [Compound 4], 2 nM.
Still for that read-out and setting: under `COC1CN2CN(C)C(=O)c3c(O)c(=O)c(C(=O)NCc4ccc(F)cc4F)c1n32` (single isomer, unassigned) [Compound 29] stands 9.9 nM.
`COC1CN2CN(CC3CC3)C(=O)c3c(O)c(=O)c(C(=O)NCc4cccc(Cl)c4F)c1n32` (single isomer, unassigned) [Compound 19]: the IC50 under setting [1] turned out to be 2.4 nM.
Consider `COC1CN2n3c(c(O)c(=O)c(C(=O)NCc4ccc(F)cc4F)c31)C(=O)N(C)C21CCOC1` (stereo not drawn) [Compound 39], for which the IC50 (0% normal human serum) worked out at 2.4 nM.
Turning to `COC1CN2n3c(c(O)c(=O)c(C(=O)NCc4ccc(F)cc4F)c31)C(=O)N(C)C21CCOC1` (stereo not drawn) [Compound 38], the IC50 under setting [1] is 2.6 nM.
Same read-out and setting: under `COC1CN2CN(CC3CC3)C(=O)c3c(O)c(=O)c(C(=O)NCc4ccc(F)c(Cl)c4)c1n32` (single isomer, unassigned) [Compound 21] stands 1 nM.
As for `COCCN1CN2CC(OC)c3c(C(=O)NCc4ccc(F)cc4)c(=O)c(O)c(n32)C1=O` (single isomer, unassigned) [Compound 15], the IC50 (0% normal human serum) was found to be 1.9 nM.
Same read-out and setting: under `CCN1CN2CC(OC)c3c(C(=O)NCc4cccc(Cl)c4F)c(=O)c(O)c(n32)C1=O` (single isomer, unassigned) [Compound 27] stands 1.2 nM.
As to `CCN1CN2CC(OC)c3c(C(=O)NCc4ccc(F)c(Cl)c4F)c(=O)c(O)c(n32)C1=O` (single isomer, unassigned) [Compound 24], the IC50 under setting [1] worked out at 1.5 nM.
